Here are results for 6 compounds from article doi:10.1101/2025.05.22.655619v4 (bioRxiv, 2025).

In one experiment the test system is defibrinated sheep blood. In words: Hemolysis assay. The conditions noted are these: for Hemo/MIC = (< 20% Hemo) / MIC Ec: MICs >50 µM treated as 100 µM, >200 µM treated as 200 µM. The format is cell-based.
For another experiment, the system named is E. coli (ATCC 25922). The experiment can be described thus: Antimicrobial susceptibility testing. The format is cell-based, Escherichia coli. The conditions noted are these: summary values.

Residues, ends and D or L forms follow the SMILES beside them.

`CC[C@H](C)[C@H](NC(=O)[C@H](CCCCN)NC(=O)[C@H](CCC(=O)O)NC(=O)[C@H](CCCCN)NC(=O)[C@H](CO)NC(=O)[C@H](CCCCN)NC(=O)[C@H](CCCNC(=N)N)NC(=O)[C@H](Cc1ccccc1)NC(=O)[C@H](Cc1ccccc1)NC(=O)[C@H](CC(=O)O)NC(=O)CN)C(=O)NCC(=O)N[C@@H](CCCCN)C(=O)N[C@@H](CCC(=O)O)C(=O)N[C@@H](Cc1ccccc1)C(=O)N[C@@H](CCCCN)C(=O)N[C@@H](CCCNC(=N)N)C(=O)N[C@H](C(=O)N[C@H](C(=O)N[C@@H](CCC(N)=O)C(=O)N[C@@H](CCCNC(=N)N)C(=O)N[C@H](C(=O)N[C@@H](CCCCN)C(=O)O)[C@@H](C)CC)C(C)C)[C@@H](C)CC` [(#4) GD-23] (H-GDFFRKSKEKIGKEFKRIVQRIK-OH; N-terminus and C-terminus assumed): the “Fold Δ = (Hemo/MIC of compound) / (Hemo/MIC of LL-37)” value with defibrinated sheep blood (Figure 1B) is recorded as 64. In addition, in the experiment on defibrinated sheep blood (Figure 6C), the “Fold Δ = (Hemo/MIC of compound) / (Hemo/MIC of LL-37)” value was 32 and the “Hemo/MIC = (< 20% Hemo) / MIC Ec” value turned out to be 32.
Regarding `CC[C@H](C)[C@H](NC(=O)[C@H](CCCNC(=N)N)NC(=O)[C@H](CCC(N)=O)NC(=O)[C@@H](NC(=O)[C@@H](NC(=O)[C@H](CCCNC(=N)N)NC(=O)[C@@H](N)CCCCN)[C@@H](C)CC)C(C)C)C(=O)N[C@@H](CCCCN)C(=O)N[C@@H](CC(=O)O)C(=O)N[C@@H](Cc1ccccc1)C(=O)N[C@@H](CC(C)C)C(=O)N[C@@H](CCCNC(=N)N)C(=O)O` [(#10) KR-12] (H-KRIVQRIKDFLR-OH), the “MIC against E. coli as stated in the text and in the table of contents graphic” value against E. coli (ATCC 25922) is on record as above 50 µM.
The same measure, in the same setting: then `CC[C@H](C)[C@H](NC(=O)[C@H](CCCNC(=N)N)NC(=O)[C@H](CCC(N)=O)NC(=O)[C@@H](NC(=O)[C@@H](NC(=O)[C@H](CCCNC(=N)N)NC(=O)[C@H](CCCCN)NC(=O)[C@H](Cc1ccccc1)NC(=O)[C@@H](N)Cc1ccccc1)[C@@H](C)CC)C(C)C)C(=O)N[C@@H](CCCCN)C(=O)N[C@@H](CC(=O)O)C(=O)N[C@@H](Cc1ccccc1)C(=O)N[C@@H](CC(C)C)C(=O)N[C@@H](CCCNC(=N)N)C(=O)O` [(#18) FF-14] (H-FFKRIVQRIKDFLR-OH), with 3.1 µM.
`CC[C@H](C)[C@H](NC(=O)[C@H](CCCCN)NC(=O)[C@H](CCC(=O)O)NC(=O)[C@H](CCCCN)NC(=O)[C@H](CO)NC(=O)[C@H](CCCCN)NC(=O)[C@H](CCCNC(=N)N)NC(=O)[C@H](Cc1ccccc1)NC(=O)[C@H](Cc1ccccc1)NC(=O)[C@H](CC(=O)O)NC(=O)CNC(=O)[C@H](CC(C)C)NC(=O)[C@@H](N)CC(C)C)C(=O)NCC(=O)N[C@@H](CCCCN)C(=O)N[C@@H](Cc1ccccc1)C(=O)N[C@@H](Cc1ccccc1)C(=O)N[C@@H](CCCCN)C(=O)N[C@@H](CCCNC(=N)N)C(=O)N[C@H](C(=O)N[C@H](C(=O)N[C@@H](CCC(N)=O)C(=O)N[C@@H](CCCNC(=N)N)C(=O)N[C@H](C(=O)N[C@@H](CCCCN)C(=O)O)[C@@H](C)CC)C(C)C)[C@@H](C)CC` [(#49) LL-25 (FF)] (H-LLGDFFRKSKEKIGKFFKRIVQRIK-OH; N-terminus assumed): in the experiment with defibrinated sheep blood (Figure 6C), the “Fold Δ = (Hemo/MIC of compound) / (Hemo/MIC of LL-37)” value is reported as 4 and the “Hemo/MIC = (< 20% Hemo) / MIC Ec” value came to 4.
In the case of `CC[C@H](C)[C@H](NC(=O)[C@H](CCCCN)NC(=O)[C@H](CCC(=O)O)NC(=O)[C@H](CCCCN)NC(=O)[C@H](CO)NC(=O)[C@H](CCCCN)NC(=O)[C@H](CCCNC(=N)N)NC(=O)[C@H](Cc1ccccc1)NC(=O)[C@H](Cc1ccccc1)NC(=O)[C@H](CC(=O)O)NC(=O)CN)C(=O)NCC(=O)N[C@@H](CCCCN)C(=O)N[C@@H](Cc1ccccc1)C(=O)N[C@@H](Cc1ccccc1)C(=O)N[C@@H](CCCCN)C(=O)N[C@@H](CCCNC(=N)N)C(=O)N[C@H](C(=O)N[C@H](C(=O)N[C@@H](CCC(N)=O)C(=O)N[C@@H](CCCNC(=N)N)C(=O)N[C@H](C(=O)N[C@@H](CCCCN)C(=O)O)[C@@H](C)CC)C(C)C)[C@@H](C)CC` [(#53) GD-23 (FF)] (H-GDFFRKSKEKIGKFFKRIVQRIK-OH; N-terminus and C-terminus assumed), in the experiment on defibrinated sheep blood (Figure 6C), the “Fold Δ = (Hemo/MIC of compound) / (Hemo/MIC of LL-37)” value is listed as 16 and the “Hemo/MIC = (< 20% Hemo) / MIC Ec” value came out at 16.
In the case of Colistin [reference compound], the “Fold Δ = (Hemo/MIC of compound) / (Hemo/MIC of LL-37)” value in the experiment on defibrinated sheep blood (Figure 1B) was found to be 512; in the experiment with defibrinated sheep blood (Figure 2B), 256. Also, the “Hemo/MIC = (< 20% Hemo) / MIC Ec” value with defibrinated sheep blood (Figure 2B) is on record as 64; with defibrinated sheep blood (Figure 4B) it was 128.
